Experimental data taken from PubChem BioAssay (NCI).
Where “and” joins values, the source holds several entries; their conditions need not be identical. Equal entries are not always repeated.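 96-well plates; 48 h exposure; 5 concentrations. Endpoints by linear interpolation between flanking doses. Not reached: highest tested concentration assigned. The concentration for 50% growth inhibition is given as GI50. TGI: total growth inhibition.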

Assays:
Test in all cases: growth of human tumour cells (NCI), 48 h
MDA-N = test system: MDA-N
SNB-19 CNS = test system: SNB-19 CNS
HCT-15 colon = test system: HCT-15 colon
HS 578T breast = test system: HS 578T breast
ACHN renal = test system: ACHN renal
HOP-62 NSCLC = test system: HOP-62 NSCLC
SF-295 CNS = test system: SF-295 CNS
T-47D breast = test system: T-47D breast
OVCAR-3 ovarian = test system: OVCAR-3 ovarian
TK-10 renal = test system: TK-10 renal
SK-MEL-5 melanoma = test system: SK-MEL-5 melanoma
OVCAR-5 ovarian = test system: OVCAR-5 ovarian
A498 renal = test system: A498 renal
NCI-H522 lung = test system: NCI-H522 lung
KM12 colon = test system: KM12 colon
SF-268 CNS = test system: SF-268 CNS
SNB-75 CNS = test system: SNB-75 CNS
BT-549 breast = test system: BT-549 breast
MCF7 breast = test system: MCF7 breast
NCI-H460 lung = test system: NCI-H460 lung
RPMI-8226 leukemia = test system: RPMI-8226 leukemia
NCI/ADR-RES ovarian = test system: NCI/ADR-RES ovarian
SK-MEL-28 melanoma = test system: SK-MEL-28 melanoma
PC-3 prostate = test system: PC-3 prostate
UACC-257 melanoma = test system: UACC-257 melanoma
NCI-H226 lung = test system: NCI-H226 lung
COLO 205 colon = test system: COLO 205 colon
CAKI-1 renal = test system: CAKI-1 renal
DU-145 prostate = test system: DU-145 prostate
UACC-62 melanoma = test system: UACC-62 melanoma
OVCAR-4 ovarian = test system: OVCAR-4 ovarian
MDA-MB-231 breast = test system: MDA-MB-231 breast
HL-60(TB) leukemia = test system: HL-60(TB) leukemia
SK-MEL-2 melanoma = test system: SK-MEL-2 melanoma
MOLT-4 leukemia = test system: MOLT-4 leukemia
786-0 renal = test system: 786-0 renal
SN12C renal = test system: SN12C renal
K-562 leukemia = test system: K-562 leukemia
NCI-H23 lung = test system: NCI-H23 lung
SR leukemia = test system: SR leukemia
UO-31 renal = test system: UO-31 renal
IGROV1 ovarian = test system: IGROV1 ovarian
HCT-116 colon = test system: HCT-116 colon
MALME-3M melanoma = test system: MALME-3M melanoma
LOX IMVI melanoma = test system: LOX IMVI melanoma
RXF 393 renal = test system: RXF 393 renal
U251 CNS = test system: U251 CNS
HT29 colon = test system: HT29 colon
OVCAR-8 ovarian = test system: OVCAR-8 ovarian
HCC-2998 colon = test system: HCC-2998 colon
EKVX NSCLC = test system: EKVX NSCLC
SW-620 colon = test system: SW-620 colon
MDA-MB-435 = test system: MDA-MB-435
CCRF-CEM leukemia = test system: CCRF-CEM leukemia
A549 NSCLC = test system: A549 NSCLC
M14 melanoma = test system: M14 melanoma
HOP-92 NSCLC = test system: HOP-92 NSCLC
SK-OV-3 ovarian = test system: SK-OV-3 ovarian
SF-539 CNS = test system: SF-539 CNS

## CC(=O)OCC1OC(SC2=N/C(=C\c3ccc(Br)s3)C(=O)N2c2ccccc2)C(OC(C)=O)C(OC(C)=O)C1OC(C)=O (stereo not given)
MDA-N
  TGI: > 100 µM
SNB-19 CNS
  TGI: > 100 µM
HCT-15 colon
  TGI: > 100 µM
HS 578T breast
  TGI: 78.4 µM and > 100 µM
ACHN renal
  TGI: > 100 µM
HOP-62 NSCLC
  TGI: > 100 µM
SF-295 CNS
  TGI: > 100 µM
T-47D breast
  GI50: 96.5 µM and 27.8 µM
  TGI: > 100 µM
OVCAR-3 ovarian
  GI50: 91.1 µM and 20.7 µM
  TGI: > 100 µM and 85.2 µM
TK-10 renal
  TGI: > 100 µM
SK-MEL-5 melanoma
  TGI: > 100 µM
OVCAR-5 ovarian
  TGI: > 100 µM
A498 renal
  TGI: > 100 µM
NCI-H522 lung
  TGI: > 100 µM and 94.3 µM
KM12 colon
  GI50: > 100 µM and 44.3 µM
  TGI: > 100 µM
SF-268 CNS
  TGI: > 100 µM
SNB-75 CNS
  GI50: 25.1 µM and > 100 µM
  TGI: 61.4 µM and > 100 µM
BT-549 breast
  TGI: > 100 µM
MCF7 breast
  TGI: > 100 µM
NCI-H460 lung
  TGI: > 100 µM
RPMI-8226 leukemia
  GI50: 37.7 µM and 7.96 µM
  TGI: > 100 µM and 61 µM
NCI/ADR-RES ovarian
  TGI: > 100 µM
SK-MEL-28 melanoma
  TGI: > 100 µM
PC-3 prostate
  TGI: > 100 µM
UACC-257 melanoma
  GI50: > 100 µM and 42.5 µM
  TGI: > 100 µM
NCI-H226 lung
  GI50: 46.9 µM and 15.7 µM
  TGI: > 100 µM
COLO 205 colon
  TGI: > 100 µM
CAKI-1 renal
  GI50: 13.4 µM and 85.7 µM
  TGI: 32.5 µM and > 100 µM
DU-145 prostate
  GI50: > 100 µM and 42.8 µM
  TGI: > 100 µM
UACC-62 melanoma
  TGI: > 100 µM
OVCAR-4 ovarian
  TGI: > 100 µM
MDA-MB-231 breast
  TGI: > 100 µM
HL-60(TB) leukemia
  GI50: 8.5 µM and 3.83 µM
  TGI: > 100 µM and 21.4 µM
SK-MEL-2 melanoma
  TGI: > 100 µM and 48.9 µM
MOLT-4 leukemia
  GI50: > 100 µM and 37.7 µM
  TGI: > 100 µM
786-0 renal
  GI50: 17.8 µM and > 100 µM
  TGI: 55.4 µM and > 100 µM
SN12C renal
  TGI: > 100 µM
K-562 leukemia
  GI50: > 100 µM and 18.9 µM
  TGI: > 100 µM
NCI-H23 lung
  TGI: > 100 µM
SR leukemia
  GI50: 35.6 µM and 9.68 µM
  TGI: > 100 µM
UO-31 renal
  GI50: 71.4 µM and 32.7 µM
  TGI: > 100 µM
IGROV1 ovarian
  GI50: 87.4 µM and 41.7 µM
  TGI: > 100 µM
HCT-116 colon
  GI50: 25.5 µM and 61.2 µM
  TGI: > 100 µM
MALME-3M melanoma
  TGI: > 100 µM
LOX IMVI melanoma
  TGI: > 100 µM
RXF 393 renal
  TGI: 57.2 µM and > 100 µM
U251 CNS
  GI50: 28 µM and 63.1 µM
  TGI: > 100 µM
HT29 colon
  GI50: > 100 µM and 28.6 µM
  TGI: > 100 µM
OVCAR-8 ovarian
  GI50: 27.9 µM and 70.3 µM
  TGI: > 100 µM
HCC-2998 colon
  TGI: > 100 µM
EKVX NSCLC
  TGI: > 100 µM
SW-620 colon
  TGI: > 100 µM
MDA-MB-435
  GI50: 86.3 µM and 32.2 µM
  TGI: > 100 µM

## O=c1[nH]c2nc3ccccc3c(=O)n2/c1=C/c1ccccc1
MDA-N
  TGI: 78.5 µM
SNB-19 CNS
  TGI: 55.9 µM
HCT-15 colon
  TGI: > 100 µM
HS 578T breast
  TGI: > 100 µM
ACHN renal
  TGI: > 100 µM
HOP-62 NSCLC
  TGI: > 100 µM
SF-295 CNS
  TGI: > 100 µM
T-47D breast
  TGI: > 100 µM
OVCAR-3 ovarian
  TGI: > 100 µM
CCRF-CEM leukemia
  TGI: > 100 µM
TK-10 renal
  TGI: > 100 µM
SK-MEL-5 melanoma
  TGI: > 100 µM
OVCAR-5 ovarian
  TGI: > 100 µM
NCI-H522 lung
  TGI: > 100 µM
KM12 colon
  TGI: > 100 µM
SF-268 CNS
  TGI: > 100 µM
SNB-75 CNS
  TGI: 99.4 µM
BT-549 breast
  TGI: 53.8 µM
MCF7 breast
  TGI: > 100 µM
RPMI-8226 leukemia
  TGI: > 100 µM
NCI/ADR-RES ovarian
  TGI: > 100 µM
SK-MEL-28 melanoma
  TGI: > 100 µM
PC-3 prostate
  TGI: > 100 µM
UACC-257 melanoma
  TGI: > 100 µM
NCI-H226 lung
  TGI: > 100 µM
COLO 205 colon
  TGI: > 100 µM
CAKI-1 renal
  TGI: > 100 µM
DU-145 prostate
  TGI: > 100 µM
UACC-62 melanoma
  TGI: > 100 µM
A549 NSCLC
  TGI: > 100 µM
OVCAR-4 ovarian
  TGI: > 100 µM
MDA-MB-231 breast
  TGI: > 100 µM
HL-60(TB) leukemia
  TGI: > 100 µM
M14 melanoma
  TGI: > 100 µM
SK-MEL-2 melanoma
  TGI: > 100 µM
MOLT-4 leukemia
  TGI: > 100 µM
786-0 renal
  TGI: 96.6 µM
SN12C renal
  TGI: 83.8 µM
HOP-92 NSCLC
  TGI: > 100 µM
NCI-H23 lung
  TGI: > 100 µM
SR leukemia
  TGI: > 100 µM
UO-31 renal
  TGI: > 100 µM
IGROV1 ovarian
  TGI: > 100 µM
HCT-116 colon
  TGI: > 100 µM
MALME-3M melanoma
  TGI: > 100 µM
LOX IMVI melanoma
  TGI: > 100 µM
RXF 393 renal
  TGI: > 100 µM
U251 CNS
  TGI: > 100 µM
HT29 colon
  TGI: 39.1 µM
OVCAR-8 ovarian
  TGI: > 100 µM
HCC-2998 colon
  TGI: > 100 µM
SK-OV-3 ovarian
  TGI: > 100 µM
EKVX NSCLC
  TGI: > 100 µM
SW-620 colon
  TGI: 47.6 µM
SF-539 CNS
  TGI: 44.9 µM
MDA-MB-435
  TGI: 59 µM
